# According to BindingDB's records for PubMed 34154424 (Bayer AG):
# Tests used:
# [1] = biological target: Mitogen-activated protein kinase kinase kinase 7, TAK1 kinase (Homo sapiens) (UniProt O43318); experiment: Inhibition of Tak1 (unknown origin) in presence of ATP
# [2] = biological target: Mitogen-activated protein kinase kinase kinase 7, TAK1 kinase (Homo sapiens) (UniProt O43318); experiment: Inhibition of Tak1 (unknown origin) by competition binding assay
# [3] = biological target: Tyrosine-protein kinase Fyn (Homo sapiens) (UniProt P06241); experiment: Inhibition of T-Fyn (unknown origin) by HTRF assay
# Tyrosine-protein kinase Fyn (Homo sapiens), sequence (P06241 whole entry, looked up): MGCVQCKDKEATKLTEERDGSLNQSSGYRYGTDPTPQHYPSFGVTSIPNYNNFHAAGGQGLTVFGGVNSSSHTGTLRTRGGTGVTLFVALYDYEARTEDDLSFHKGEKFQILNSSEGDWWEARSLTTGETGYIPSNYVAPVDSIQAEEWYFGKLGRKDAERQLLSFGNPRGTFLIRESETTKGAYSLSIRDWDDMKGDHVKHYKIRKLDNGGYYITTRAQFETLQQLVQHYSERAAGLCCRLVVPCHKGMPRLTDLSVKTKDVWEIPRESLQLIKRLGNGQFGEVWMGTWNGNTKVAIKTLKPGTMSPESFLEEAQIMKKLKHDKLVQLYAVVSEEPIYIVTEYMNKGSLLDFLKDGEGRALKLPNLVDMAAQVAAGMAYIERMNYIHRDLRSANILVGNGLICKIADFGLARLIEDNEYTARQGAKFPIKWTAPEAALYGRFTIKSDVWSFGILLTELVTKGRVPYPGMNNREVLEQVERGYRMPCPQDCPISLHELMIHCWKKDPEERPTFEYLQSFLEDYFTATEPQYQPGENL
# Mitogen-activated protein kinase kinase kinase 7, TAK1 kinase (Homo sapiens), sequence (O43318 whole entry, looked up): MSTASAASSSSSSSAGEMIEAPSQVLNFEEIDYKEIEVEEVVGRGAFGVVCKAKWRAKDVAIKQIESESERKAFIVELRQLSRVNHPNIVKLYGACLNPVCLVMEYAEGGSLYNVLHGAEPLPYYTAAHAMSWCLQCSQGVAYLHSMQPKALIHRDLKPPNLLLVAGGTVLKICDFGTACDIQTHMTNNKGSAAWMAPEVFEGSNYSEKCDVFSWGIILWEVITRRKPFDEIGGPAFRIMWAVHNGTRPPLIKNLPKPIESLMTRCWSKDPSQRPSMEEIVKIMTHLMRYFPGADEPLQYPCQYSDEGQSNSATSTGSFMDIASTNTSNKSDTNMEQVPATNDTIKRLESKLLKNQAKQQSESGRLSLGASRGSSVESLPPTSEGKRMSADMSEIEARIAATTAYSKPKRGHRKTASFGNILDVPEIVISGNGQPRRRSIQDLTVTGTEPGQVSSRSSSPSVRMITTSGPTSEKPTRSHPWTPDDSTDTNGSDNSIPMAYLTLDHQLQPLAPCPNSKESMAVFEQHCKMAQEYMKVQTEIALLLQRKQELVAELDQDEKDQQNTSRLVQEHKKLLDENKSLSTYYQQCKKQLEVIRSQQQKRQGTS
compound,measurement,setting,value
C[C@H]1CC(=O)Nc2cc(C(=O)NCCC3CC3)ccc2N1C(=O)N1CC2CC2C1 (stereo partly drawn),IC50,[1],> 2 nM
same,IC50,[2],> 2 nM
same,IC50,[3],> 5.7 nM
